This note sets out measurements from patent US8076266B2, “Urea phosphite fungicide” (Lidochem, Inc., priority 2004, dated 2011).

Data set [1] has as its system Downey Mildew fungus on lettuce. Particulars: in vivo.
The format of data set [2] is physicochemical. The source says: […]. 55 grams phosphorous acid crystals were blended with 42 grams urea pills and stirred in a covered container at room temperature. […].

Consider “potassium phosphite [2 (potassium phosphite)]”, for which, in data set [1], the “Downey mildew rating, Mean of 4 Replications” value (“Downey mildew rating, Mean” below) was 4.81 and the Ranking stood at 4.

For “potassium phosphite [1 (potassium phosphite)]”, in data set [1], the “Downey mildew rating, Mean” value is reported as 4.62 and the Ranking came out at 3.

Take Urea Phosphite [Example 4]: the “Stability of liquid on heating / cooling” value in data set [2] was “stable upon heating to 90 °C and crystals formed upon cooling”.

Take urea phosphite [Example 2]: the “Stability of liquid on heating / cooling” value in data set [2] is “stable upon heating to 90 °C or cooling to 0 °C”.

On to `NC(N)=O.OP(O)O` [Urea Phosphite], for which, in data set [1], the “Downey mildew rating, Mean” value was 3.93; the Pathological acerbation entry was “no indication of pathological acerbation”; the Ranking came to 1.
